Reference: patent publication US9029384B2, “Phosphatidylinositol 3-kinase inhibitors” (Gilead Calistoga LLC, priority 2012, dated 2015)
Where two headings read alike, the source gives them in different places.

Legend:
basophils = experiment: Basophil activation in human whole blood (Flow2 CAST kit, CD63 positive cells); type: cell-based
Procedure, shortened: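 Human whole blood (K2-EDTA) preincubated 60 minutes at 37° C with compound serial dilutions or DMSO (0.3% final), then stimulated with anti-FcεRI mAb or fMLP and stained for CD63/CCR3. Percent CD63+ among ≥200 CCR3-high basophils by flow cytometry, normalized to stimulated vehicle as 100%. EC50 from four-parameter fits, geometric means in nM, concentrations corrected for reagent dilution.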

PI3Kδ = biological target: T1, PI3Kδ (Homo sapiens, UniProt O00329); experiment: Enzymatic activity of PI3K isoforms, TR-FRET assay (PIP3 formation); type: biochemical
T1 construct: made in house
T1 sequence (O00329 whole entry, canonical isoform): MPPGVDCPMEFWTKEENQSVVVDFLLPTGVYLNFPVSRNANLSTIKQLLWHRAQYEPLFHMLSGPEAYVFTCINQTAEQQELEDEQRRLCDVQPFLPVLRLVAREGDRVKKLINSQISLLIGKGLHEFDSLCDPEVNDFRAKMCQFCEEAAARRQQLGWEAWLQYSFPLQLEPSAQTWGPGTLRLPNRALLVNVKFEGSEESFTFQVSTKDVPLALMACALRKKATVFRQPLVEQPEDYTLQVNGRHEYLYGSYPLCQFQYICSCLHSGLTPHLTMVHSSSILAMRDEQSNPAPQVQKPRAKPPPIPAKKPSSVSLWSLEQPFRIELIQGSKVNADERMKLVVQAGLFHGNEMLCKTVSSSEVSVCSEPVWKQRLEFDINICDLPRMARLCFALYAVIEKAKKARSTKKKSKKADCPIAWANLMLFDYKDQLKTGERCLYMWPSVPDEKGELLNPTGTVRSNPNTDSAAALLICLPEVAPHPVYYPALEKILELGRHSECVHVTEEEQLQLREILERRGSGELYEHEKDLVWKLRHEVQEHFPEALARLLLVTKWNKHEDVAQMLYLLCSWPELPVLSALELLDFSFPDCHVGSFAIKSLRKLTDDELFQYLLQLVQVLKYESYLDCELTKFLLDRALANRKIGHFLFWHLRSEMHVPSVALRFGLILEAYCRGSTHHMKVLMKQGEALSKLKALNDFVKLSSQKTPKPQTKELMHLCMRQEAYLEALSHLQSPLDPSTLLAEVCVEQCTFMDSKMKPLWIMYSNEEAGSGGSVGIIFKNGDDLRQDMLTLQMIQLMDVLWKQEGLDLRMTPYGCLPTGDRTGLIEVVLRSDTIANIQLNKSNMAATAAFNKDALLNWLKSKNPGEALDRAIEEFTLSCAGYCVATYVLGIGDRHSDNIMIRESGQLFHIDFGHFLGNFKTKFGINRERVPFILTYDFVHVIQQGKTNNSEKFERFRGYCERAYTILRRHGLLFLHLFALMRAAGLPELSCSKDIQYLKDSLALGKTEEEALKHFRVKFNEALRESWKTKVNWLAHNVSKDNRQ
T1 sequence (P27986 whole entry partner, canonical isoform): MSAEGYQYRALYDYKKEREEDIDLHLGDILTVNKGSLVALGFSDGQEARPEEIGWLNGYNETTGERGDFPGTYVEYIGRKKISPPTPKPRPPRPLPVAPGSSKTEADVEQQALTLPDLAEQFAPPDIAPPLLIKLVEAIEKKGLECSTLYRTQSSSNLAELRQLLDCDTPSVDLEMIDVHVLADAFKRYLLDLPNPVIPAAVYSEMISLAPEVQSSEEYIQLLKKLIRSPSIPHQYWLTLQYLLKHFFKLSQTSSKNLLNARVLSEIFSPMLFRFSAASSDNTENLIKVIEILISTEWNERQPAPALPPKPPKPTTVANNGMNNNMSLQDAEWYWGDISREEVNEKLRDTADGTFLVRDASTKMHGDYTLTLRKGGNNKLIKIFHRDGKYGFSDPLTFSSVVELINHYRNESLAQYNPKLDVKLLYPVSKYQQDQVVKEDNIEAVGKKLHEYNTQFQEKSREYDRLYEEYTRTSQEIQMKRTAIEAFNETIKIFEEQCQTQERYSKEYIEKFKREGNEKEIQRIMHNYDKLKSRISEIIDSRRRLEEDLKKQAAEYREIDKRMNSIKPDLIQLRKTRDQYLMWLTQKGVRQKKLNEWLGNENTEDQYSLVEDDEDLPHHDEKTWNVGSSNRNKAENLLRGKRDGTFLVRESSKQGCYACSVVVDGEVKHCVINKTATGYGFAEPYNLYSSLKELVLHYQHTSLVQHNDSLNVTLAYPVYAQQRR
Procedure, shortened: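 Recombinant heterodimeric class I PI3K; PIP3 product measured by TR-FRET competition with labelled PIP3 for Eu-GRP-1 PH domain. Reaction 30 min at 25 °C, stopped with 10 mM EDTA.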

[1] = Hepatocyte stability, 0.01% final DMSO, 1 μM substrate (t1/2^b); type: in vitro ADME; conditions: human, hepatocytes, TA with 0.01% final DMSO
Procedure: Alternatively, assay reagents and/or conditions can be modified in determining the inhibitory activities to PI3K isomers. In additional studies, similar assay using TA and 0.01% final DMSO concentration were incubated with 1 million hepatocytes/mL at 1 μM substrate in duplicate. The incubation was carried out at 37° C. with 5% CO2 and saturating humidity.

[2] = Hepatocyte stability, 1% final DMSO, 2 μM substrate (t1/2^a); type: in vitro ADME; conditions: human, cryopreserved hepatocytes, TA with 1% final DMSO
Procedure: This assay was used to evaluate the metabolic stability of test articles (TA) following incubation in cryopreserved hepatocytes by monitoring parent drug disappearance via […]. The TA with 1% final DMSO concentration was incubated with 1 million hepatocytes/ml at 2 μM substrate in duplicate. The incubation was carried out at 37° C. with 5% CO2 and saturating humidity.

[3] = Homo sapiens, basophils activated with anti-FcεRI mAb or fMLP, geometric mean
[4] = PI3Kδ, TR-FRET, 2×Km ATP, 10 μM PIP2, read-out: IC50
[5] = 1 μM substrate, samples at 0, 1, 3, 6 hours, read-out: human hepatocyte t½^b
[6] = 2 μM substrate, samples at 0, 1, 2, 4 hours, read-out: human hepatocyte t½^a
[7] = Homo sapiens, basophil activation
[8] = human hepatocytes, read-out: t1/2^b
[9] = human hepatocytes, read-out: t1/2^a

CC(Nc1nc(N)nc(N)c1C#N)c1nc2cccc(F)c2c(=O)n1-c1cc(F)cc(F)c1 (single isomer, unassigned) [Compound 10a]
EC50 (basophils; [3]): 1 to 10 nM
IC50 (PI3Kδ; [4]): 1 to 10 nM
half-life at 1 μM [1, 5]: 3 to 6 h
half-life at 2 μM [2, 6]: > 10 h

CC(Nc1nc(N)nc(N)c1C#N)c1nc2ccc(F)cc2c(=O)n1-c1cc(F)cc(F)c1 (single isomer, unassigned) [Compound 11a]
EC50 (basophils; [3]): 1 to 10 nM
IC50 (PI3Kδ; [4]): 1 to 10 nM
half-life at 1 μM [1, 5]: 6 to 10 h
half-life at 2 μM [2, 6]: > 10 h

CC(Nc1nc(N)nc(N)c1C#N)c1nc2c(F)cccc2c(=O)n1-c1cc(F)cc(F)c1 (single isomer, unassigned) [Compound 16a]
EC50 (basophils; [3]): 1 to 10 nM
IC50 (PI3Kδ; [4]): 1 to 10 nM
half-life at 1 μM [1, 5]: 3 to 6 h
half-life at 2 μM [2, 6]: > 10 h

CCC(Nc1nc(N)nc(N)c1C#N)c1nc2c(F)cccc2c(=O)n1-c1cc(F)cc(F)c1 (single isomer, unassigned) [Compound 17a]
EC50 (basophils; [3]): < 1 nM
IC50 (PI3Kδ; [4]): 1 to 10 nM
half-life at 1 μM [1, 5]: 6 to 10 h
half-life at 2 μM [2, 6]: > 10 h

CC(Nc1nc(N)nc(N)c1C#N)c1nc2c(F)ccc(F)c2c(=O)n1-c1cc(F)cc(F)c1 (single isomer, unassigned) [Compound 21a]
EC50 (basophils; [3]): 1 to 10 nM
IC50 (PI3Kδ; [4]): 1 to 10 nM
half-life at 1 μM [1, 5]: 3 to 6 h
half-life at 2 μM [2, 6]: 6 to 10 h

CCC(Nc1nc(N)nc(N)c1C#N)c1nc2c(F)ccc(F)c2c(=O)n1-c1cc(F)cc(F)c1 (single isomer, unassigned) [Compound 27a]
EC50 (basophils; [3]): 1 to 10 nM
IC50 (PI3Kδ; [4]): 10 to 50 nM
half-life at 1 μM [1, 5]: 1 to 3 h
half-life at 2 μM [2, 6]: > 10 h

CCC(Nc1nc(N)nc(N)c1C#N)c1nc2ccccc2c(=O)n1-c1cc(F)cc(F)c1 (single isomer, unassigned) [Compound 36a]
EC50 (basophils; [3]): 1 to 10 nM
IC50 (PI3Kδ; [4]): 10 to 50 nM
half-life at 1 μM [1, 5]: > 10 h
half-life at 2 μM [2, 6]: > 10 h

CCC(Nc1nc(N)nc(N)c1C#N)c1nc2c(C)ccc(F)c2c(=O)n1-c1cc(F)cc(F)c1 (single isomer, unassigned) [Compound 37a]
EC50 (basophils; [3]): 10 to 50 nM
IC50 (PI3Kδ; [4]): 10 to 50 nM
half-life at 1 μM [1, 5]: 3 to 6 h
half-life at 2 μM [2, 6]: 6 to 10 h

CC(Nc1nc(N)nc(N)c1C#N)c1nc2cccc(F)c2c(=O)n1-c1cccc(C#N)c1 (single isomer, unassigned) [Compound 38a]
EC50 (basophils; [3]): 1 to 10 nM
IC50 (PI3Kδ; [4]): 10 to 50 nM
half-life at 1 μM [1, 5]: > 10 h
half-life at 2 μM [2, 6]: > 10 h

CC(Nc1nc(N)nc(N)c1C#N)c1nc2cccc(F)c2c(=O)n1-c1cc(Cl)cc(Cl)c1 (single isomer, unassigned) [Compound 42a]
EC50 (basophils; [3]): 1 to 10 nM
IC50 (PI3Kδ; [4]): 10 to 50 nM
half-life at 1 μM [1, 5]: 1 to 3 h
half-life at 2 μM [2, 6]: > 10 h

CC(Nc1nc(N)nc(N)c1C#N)c1nc2cccc(F)c2c(=O)n1-c1cc(F)cc(Cl)c1 (single isomer, unassigned) [Compound 44a]
EC50 (basophils; [3]): 10 to 50 nM
IC50 (PI3Kδ; [4]): 10 to 50 nM
half-life at 1 μM [1, 5]: 1 to 3 h
half-life at 2 μM [2, 6]: > 10 h

CC(Nc1nc(N)nc(N)c1C#N)c1nc2cccc(Cl)c2c(=O)n1-c1ccccc1 (single isomer, unassigned) [Compound 49a]
EC50 (basophils; [7]): < 0.5 nM
EC50 (basophils; [3]): < 1 nM
IC50 (PI3Kδ; [4]): < 1 nM
half-life at 1 μM [1, 5]: 3 to 6 h
half-life at 1 μM [1, 8]: > 4 h
half-life at 2 μM [2, 6]: > 10 h
half-life at 2 μM [2, 9]: > 10 h

CC(Nc1nc(N)nc(N)c1C#N)c1nc2cccc(C(F)F)c2c(=O)n1-c1cc(F)cc(F)c1 (single isomer, unassigned) [Compound 52a]
EC50 (basophils; [3]): 1 to 10 nM
IC50 (PI3Kδ; [4]): 1 to 10 nM
half-life at 1 μM [1, 5]: 6 to 10 h
half-life at 2 μM [2, 6]: > 10 h

CC(Nc1nc(N)nc(N)c1C#N)c1nc2cccc(F)c2c(=O)n1-c1cc(F)cc(C(F)F)c1 (single isomer, unassigned) [Compound 54a]
EC50 (basophils; [3]): 1 to 10 nM
IC50 (PI3Kδ; [4]): 10 to 50 nM
half-life at 1 μM [1, 5]: 3 to 6 h
half-life at 2 μM [2, 6]: > 10 h

Cc1ccc(F)c2c(=O)n(-c3ccccc3)c(C(C)Nc3nc(N)nc(N)c3C#N)nc12 (single isomer, unassigned) [Compound 61a]
EC50 (basophils; [3]): < 1 nM
IC50 (PI3Kδ; [4]): 1 to 10 nM
half-life at 1 μM [1, 5]: 3 to 6 h
half-life at 2 μM [2, 6]: > 10 h

CC(Nc1nc(N)nc(N)c1C#N)c1nc2c(Cl)ccc(F)c2c(=O)n1-c1cc(F)cc(F)c1 (single isomer, unassigned) [Compound 67a]
EC50 (basophils; [3]): 1 to 10 nM
IC50 (PI3Kδ; [4]): 1 to 10 nM
half-life at 1 μM [1, 5]: 1 to 3 h
half-life at 2 μM [2, 6]: > 10 h

CC(Nc1nc(N)nc(N)c1C#N)c1nc2c(Cl)cccc2c(=O)n1-c1cc(F)cc(F)c1 (single isomer, unassigned) [Compound 71a]
EC50 (basophils; [3]): 1 to 10 nM
IC50 (PI3Kδ; [4]): 1 to 10 nM
half-life at 1 μM [1, 5]: 1 to 3 h
half-life at 2 μM [2, 6]: > 10 h

CCC(Nc1nc(N)nc(N)c1C#N)c1nc2c(C)cccc2c(=O)n1-c1cc(F)cc(F)c1 (single isomer, unassigned) [Compound 76a]
EC50 (basophils; [3]): > 50 nM
IC50 (PI3Kδ; [4]): 10 to 50 nM
half-life at 2 μM [2, 6]: > 10 h

CCC(Nc1nc(N)nc(N)c1C#N)c1nc2cccc(Cl)c2c(=O)n1-c1cc(F)cc(F)c1 (single isomer, unassigned) [Compound 78a]
EC50 (basophils; [3]): 1 to 10 nM
IC50 (PI3Kδ; [4]): 1 to 10 nM
half-life at 2 μM [2, 6]: 6 to 10 h

Cc1ccc(F)c2c(=O)n(-c3cccc(C#N)c3)c(C(C)Nc3nc(N)nc(N)c3C#N)nc12 (single isomer, unassigned) [Compound 82a]
EC50 (basophils; [3]): > 50 nM
IC50 (PI3Kδ; [4]): 10 to 50 nM
half-life at 2 μM [2, 6]: 6 to 10 h

CC(Nc1nc(N)nc(N)c1C#N)c1nc2cccc(C(F)F)c2c(=O)n1-c1cc(F)cc(C(F)F)c1 (single isomer, unassigned) [Compound 99a]
EC50 (basophils; [3]): 10 to 50 nM
IC50 (PI3Kδ; [4]): 1 to 10 nM
half-life at 2 μM [2, 6]: 6 to 10 h

CC(Nc1nc(N)nc(N)c1C(N)=O)c1nc2cccc(Cl)c2c(=O)n1-c1cccc(C(F)F)c1 (single isomer, unassigned) [Compound 100a]
EC50 (basophils; [3]): 1 to 10 nM
IC50 (PI3Kδ; [4]): 1 to 10 nM
half-life at 2 μM [2, 6]: 1 to 3 h

CCC(Nc1nc(N)nc(N)c1C#N)c1nc2c(Cl)ccc(F)c2c(=O)n1-c1cc(F)cc(F)c1 (single isomer, unassigned) [Compound 102a]
EC50 (basophils; [3]): 1 to 10 nM
IC50 (PI3Kδ; [4]): 10 to 50 nM
half-life at 2 μM [2, 6]: 6 to 10 h

CC(Nc1nc(N)nc(N)c1Cl)c1nc2cccc(Cl)c2c(=O)n1-c1ccccc1 (single isomer, unassigned) [Compound 104a]
EC50 (basophils; [3]): 1 to 10 nM
IC50 (PI3Kδ): < 1 nM
half-life at 2 μM [2, 6]: 3 to 6 h

CC(C)c1cccc(-n2c(C(C)Nc3nc(N)nc(N)c3C#N)nc3cccc(Cl)c3c2=O)c1 (single isomer, unassigned) [Compound 107a]
EC50 (basophils; [3]): 1 to 10 nM
IC50 (PI3Kδ; [4]): 1 to 10 nM
half-life at 2 μM [2, 6]: < 1 h

CC(C)CC(Nc1nc(N)nc(N)c1C#N)c1nc2cccc(Cl)c2c(=O)n1-c1cc(F)cc(F)c1 (single isomer, unassigned) [Compound 163a]
EC50 (basophils; [3]): > 50 nM
IC50 (PI3Kδ; [4]): 1 to 10 nM
half-life at 2 μM [2, 6]: 1 to 3 h

COc1cc(F)cc(-n2c(C(C)Nc3nc(N)nc(N)c3C#N)nc3cccc(Cl)c3c2=O)c1 (single isomer, unassigned) [Compound 192a]
EC50 (basophils; [3]): < 1 nM
IC50 (PI3Kδ; [4]): 1 to 10 nM
half-life at 2 μM [2, 6]: 1 to 3 h

Cc1ccc(F)cc1-n1c(C(C)Nc2nc(N)nc(N)c2C#N)nc2cccc(Cl)c2c1=O (single isomer, unassigned) [Compound 201a-2]
EC50 (basophils; basophils activated with anti-FcεRI mAb or fMLP, geometric mean): 1 to 10 nM
IC50 (PI3Kδ; [4]): 1 to 10 nM
half-life at 2 μM [2, 6]: 6 to 10 h

C[C@H](Nc1ncnc2[nH]cnc12)c1nc2cccc(Cl)c2c(=O)n1-c1ccccc1 [X, reference compound]
EC50 (basophils; [7]): > 5 nM
EC50 (basophils; [3]): 1 to 10 nM
half-life at 1 μM [1, 8]: < 2 h
half-life at 2 μM [2, 6]: 1 to 3 h
half-life at 2 μM [2, 9]: < 1 h
